Results: US20250319189A1, “GANCICLOVIR COMPOSITIONS AND RELATED METHODS” (Exela Pharma Sciences, LLC, priority 2013, published 2025)
Where two headings read alike, the source gives them in different places.

Tests used:
[1] = Particulate matter in aqueous solution (USP requirements); type: physicochemical; conditions: aqueous solution of ganciclovir base at about or below about 3 mg/ml
Excerpt: As used herein, the term “particulate-matter-free” or its grammatical equivalents such as “particle free” refer to the state in which the composition of the present invention meets the USP requirements for particulate matter in parenteral solutions. See for example, USP XXXII, Chapter 788. One of skill in the art understands and knows how to assess whether a given composition meets USP particulate matter requirements.

[2] = Stability of aqueous formulation on shelf storage / accelerated storage; type: physicochemical
[3] = cited from earlier work
[4] = cited from earlier work; remark: listed apart in the source

Compound	particulate matter [1]	retained initial concentration of ganciclovir ([2]; aqueous solution at about or below about 3 mg/ml, accelerated storage or stability testing conditions)	stability for extended shelf-storage ([2]; aqueous solution of ganciclovir base at concentrations of about or below about 3 mg/ml)	solubility in water [3]	stability in an aqueous formulation (prolonged shelf-storage) [4]	solubility in water ([3]; listed as Ganciclovir sodium salt)
Nc1nc2c(ncn2COC(CO)CO)c(=O)[nH]1 [ganciclovir base, 9-(1,3-dihydroxy-2-propoxymethyl)guanine]	free or substantially free of particulate matter	at least 95%	stable for extended shelf-storage	limited solubility in water	–	–
Nc1nc(O)c2ncn(COC(CO)CO)c2n1 [ganciclovir sodium]	–	–	–	–	not sufficiently stable	very soluble in water
